From patent US20250171431A1, “HETEROCYCLIC INHIBITORS OF IGF-1R FOR TREATMENT OF DISEASE” (HORIZON THERAPEUTICS IRELAND DAC, priority 2023, published 2025) come the findings set out here.

Molecules are shown by their SMILES.

IGF-1R, sequence (P08069 31-1367): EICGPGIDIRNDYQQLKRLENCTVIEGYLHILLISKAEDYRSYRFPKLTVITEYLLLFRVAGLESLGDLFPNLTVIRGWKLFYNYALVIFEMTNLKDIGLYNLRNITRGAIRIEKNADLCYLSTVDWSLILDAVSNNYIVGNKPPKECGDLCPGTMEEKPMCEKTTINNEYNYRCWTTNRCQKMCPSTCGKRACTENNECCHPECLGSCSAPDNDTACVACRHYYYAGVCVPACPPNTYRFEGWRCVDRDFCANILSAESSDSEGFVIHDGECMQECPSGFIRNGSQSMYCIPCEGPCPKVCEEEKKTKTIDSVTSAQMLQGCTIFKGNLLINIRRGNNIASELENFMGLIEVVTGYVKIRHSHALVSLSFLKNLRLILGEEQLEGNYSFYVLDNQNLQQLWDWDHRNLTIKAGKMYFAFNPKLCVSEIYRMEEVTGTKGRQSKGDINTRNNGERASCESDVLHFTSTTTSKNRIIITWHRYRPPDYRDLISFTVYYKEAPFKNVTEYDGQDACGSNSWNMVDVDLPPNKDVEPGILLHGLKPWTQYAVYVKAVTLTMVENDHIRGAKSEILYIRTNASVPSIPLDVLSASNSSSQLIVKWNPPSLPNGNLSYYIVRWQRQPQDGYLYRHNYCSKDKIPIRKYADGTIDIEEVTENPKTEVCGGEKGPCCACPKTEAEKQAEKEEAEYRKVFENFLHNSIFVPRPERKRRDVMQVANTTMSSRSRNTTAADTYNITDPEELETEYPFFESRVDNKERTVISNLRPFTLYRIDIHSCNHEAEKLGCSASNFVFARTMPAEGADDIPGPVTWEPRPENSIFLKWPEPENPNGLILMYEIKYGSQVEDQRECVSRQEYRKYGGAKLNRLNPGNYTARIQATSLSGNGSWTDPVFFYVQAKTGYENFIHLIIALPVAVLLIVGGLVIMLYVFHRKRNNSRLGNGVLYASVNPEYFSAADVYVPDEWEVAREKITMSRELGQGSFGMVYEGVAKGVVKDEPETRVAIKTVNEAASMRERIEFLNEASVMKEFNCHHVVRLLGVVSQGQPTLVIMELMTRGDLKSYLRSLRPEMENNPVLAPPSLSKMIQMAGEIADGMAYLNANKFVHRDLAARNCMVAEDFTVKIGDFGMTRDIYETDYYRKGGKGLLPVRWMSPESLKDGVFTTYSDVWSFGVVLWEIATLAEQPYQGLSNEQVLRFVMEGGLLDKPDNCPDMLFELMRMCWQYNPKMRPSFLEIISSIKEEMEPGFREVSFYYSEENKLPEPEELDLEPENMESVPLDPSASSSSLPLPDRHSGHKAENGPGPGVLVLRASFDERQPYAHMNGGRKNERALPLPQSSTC

This assay deals with IGF-1R (Homo sapiens (Human), UniProt P08069). Kind of assay: Example B-1: IGF-1R Assay (PC3 cells, IGF1 stimulation, AlphaLISA). The class given is cell-based. The following applies: 200 ng/mL IGF1 stimulation, read-out: Biological Activity against IGF-1R IC50. The procedure, abridged:
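Readout is AlphaLISA signal from lysed PC3 cells, expressed as % inhibition versus vehicle and EC80 controls and banded by IC50. Before lysis, the cells were starved of serum for 2 h, exposed to 3× serially diluted compound for 2 h, and stimulated for 30 min with 200 ng/mL IGF1 (final).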
In general terms: In Alpha technology, singlet oxygen from a donor bead excites a nearby acceptor bead.
Take `COc1cc(Nc2nccc(Nc3cnc4c(c3)SCCC4)n2)ccc1OCCCN1CCCCC1` [Compound 378, 4-(3,4-dihydro-2H-1-thia-5-azanaphth-7-ylamino)-2-[3-methoxy-4-(3-piperidinopropoxy)phenylamino]pyrimidine]: the IC50 is no more than 500 nM.
Take `COc1cc(Nc2nccc(Nc3cnc4c(c3)CN(C)CC4)n2)ccc1OCCCN1CCCCC1` [Compound 379, 2-[3-methoxy-4-(3-piperidinopropoxy)phenylamino]-4-(6-methyl-5,6,7,8-tetrahydro-1,6-diaza-3-naphthylamino)pyrimidine]: the IC50 is 2000 to 10000 nM.
As to `COc1cc(Nc2nccc(Nc3cnc4[nH]ccc4c3)n2)ccc1OCCCN1CCCCC1` [Compound 381, 4-(1H-1,7-diazainden-5-ylamino)-2-[3-methoxy-4-(3-piperidinopropoxy)phenylamino]pyrimidine], the IC50 was no more than 500 nM.
On to `COc1cc(Nc2nccc(Nc3cnc4c(c3)OCCC4)n2)ccc1OCCCN1CCCCC1` [Compound 383, 4-(3,4-dihydro-2H-1-oxa-5-azanaphth-7-ylamino)-2-[3-methoxy-4-(3-piperidinopropoxy)phenylamino]pyrimidine], for which the IC50 was no more than 500 nM.
For `COc1cc(Nc2nccc(Nc3cnc4c(c3)COC(C)(C)C4)n2)ccc1OCCCN1CCCCC1` [Compound 385, 4-(7,7-dimethyl-7,8-dihydro-5H-6-oxa-1-azanaphth-3-ylamino)-2-[3-methoxy-4-(3-piperidinopropoxy)phenylamino]pyrimidine] the value was 500 to 2000 nM; for `COc1cc(Nc2nccc(Nc3cnc4c(c3)C(C)(C)OC(C)(C)C4)n2)ccc1OCCCN1CCCCC1` [Compound 386, 2-[3-methoxy-4-(3-piperidinopropoxy)phenylamino]-4-(5,5,7,7-tetramethyl-7,8-dihydro-5H-6-oxa-1-azanaphth-3-ylamino)pyrimidine], 500 to 2000 nM; for `COc1cc(Nc2nccc(Nc3cnc4c(c3)OC(C)CO4)n2)ccc1OCCCN1CCCCC1` (centres unmarked) [Compound 387, 2-[3-methoxy-4-(3-piperidinopropoxy)phenylamino]-4-(2-methyl-2,3-dihydro-1,4-dioxa-5-aza-7-naphthylamino)pyrimidine], no more than 500 nM.
To `c1cc(Nc2cnc3c(c2)OCCO3)nc(Nc2ccc(OCCCN3CCOCC3)cc2)n1` [Compound 388, 4-(2,3-dihydro-1,4-dioxa-5-aza-7-naphthylamino)-2-[p-(3-morpholinopropoxy)phenylamino]pyrimidine] belongs no more than 500 nM; to `COc1cc(Nc2nccc(Nc3cnc4c(c3)OCCO4)n2)ccc1OCCCN1CCOCC1` [Compound 389, 4-(2,3-dihydro-1,4-dioxa-5-aza-7-naphthylamino)-2-[3-methoxy-4-(3-morpholinopropoxy)phenylamino]pyrimidine], no more than 500 nM; to `O=S1(=O)CCc2ncc(Nc3ccnc(Nc4ccc(OCCCN5CCOCC5)cc4)n3)cc2C1` [Compound 390, 3-{2-[p-(3-morpholinopropoxy)phenylamino]-4-pyrimidinylamino}-5,6,7,8-tetrahydro-6H,6H-6λ^6-thia-1-azanaphthalene-6,6-dione], 500 to 2000 nM.
For `COc1cc(Nc2nccc(Nc3cnc4c(c3)CS(=O)(=O)CC4)n2)ccc1OCCCN1CCCCC1` [Compound 391, 3-{2-[3-methoxy-4-(3-piperidinopropoxy)phenylamino]-4-pyrimidinylamino}-5,6,7,8-tetrahydro-6H,6H-6λ^6-thia-1-azanaphthalene-6,6-dione], the IC50 is 2000 to 10000 nM.
As for `COc1cc(Nc2nccc(Nc3cnc4c(F)c(F)ccc4c3)n2)ccc1OCCCN1CCCCC1` [Compound 393, 4-(7,8-difluoro-3-quinolylamino)-2-[3-methoxy-4-(3-piperidinopropoxy)phenylamino]pyrimidine], the IC50 was no more than 500 nM.
To `c1ccc2ncc(Nc3ccnc(Nc4ccc(OCCCN5CCOCC5)cc4)n3)cc2c1` [Compound 394, 2-[p-(3-morpholinopropoxy)phenylamino]-4-(3-quinolylamino)pyrimidine] belongs no more than 500 nM; to `FC(F)(F)c1ccc2cc(Nc3ccnc(Nc4ccc(OCCCN5CCOCC5)cc4)n3)cnc2c1` [Compound 395, 2-[p-(3-morpholinopropoxy)phenylamino]-4-[7-(trifluoromethyl)-3-quinolylamino]pyrimidine], 2000 to 10000 nM.
Consider `N#Cc1ccc2ncc(Nc3ccnc(Nc4ccc(OCCCN5CCOCC5)cc4)n3)cc2c1` [Compound 396, 3-{2-[p-(3-morpholinopropoxy)phenylamino]-4-pyrimidinylamino}-6-quinolinecarbonitrile], for which the IC50 lay within 2000 to 10000 nM.
`CCc1ccc2cc(Nc3ccnc(Nc4ccc(OCCCN5CCOCC5)cc4)n3)cnc2c1` [Compound 397, 4-(7-ethyl-3-quinolylamino)-2-[p-(3-morpholinopropoxy)phenylamino]pyrimidine]: the IC50 was 2000 to 10000 nM.
Turning to `O=S1(=O)CCN(CCCOc2ccc(Nc3nccc(Nc4cnc5c(Cl)cccc5c4)n3)cc2)CC1` [Compound 398, 4-(3-{p-[4-(8-chloro-3-quinolylamino)-2-pyrimidinylamino]phenoxy}propyl)-1λ^6,4-thiazinane-1,1-dione], the IC50 was no more than 500 nM.
As for `O=S1(=O)CCN(CCCOc2ccc(Nc3nccc(Nc4cnc5cc(Cl)ccc5c4)n3)cc2)CC1` [Compound 399, 4-(3-{p-[4-(7-chloro-3-quinolylamino)-2-pyrimidinylamino]phenoxy}propyl)-1λ^6,4-thiazinane-1,1-dione], the IC50 was 2000 to 10000 nM.
For `COc1ccc2cc(Nc3ccnc(Nc4ccc(OCCCN5CCS(=O)(=O)CC5)cc4)n3)cnc2c1` [Compound 400, 4-(3-{p-[4-(7-methoxy-3-quinolylamino)-2-pyrimidinylamino]phenoxy}propyl)-1λ^6,4-thiazinane-1,1-dione] the value was 500 to 2000 nM.
With `Clc1ccc2ncc(Nc3ccnc(Nc4ccc(OCCCN5CCOCC5)cc4)n3)cc2c1` [Compound 401, 4-(6-chloro-3-quinolylamino)-2-[p-(3-morpholinopropoxy)phenylamino]pyrimidine], the IC50 was no more than 500 nM.
As for `c1ccc2ncc(Nc3ccnc(Nc4ccc(OCCCN5CCCCC5)c(OCC5CCCO5)c4)n3)cc2c1` (centres unmarked) [Compound 402, 2-{4-(3-piperidinopropoxy)-3-[(tetrahydro-2-furyl)methoxy]phenylamino}-4-(3-quinolylamino)pyrimidine], the IC50 is no more than 500 nM.
In the case of `Fc1ccc2cc(Nc3ccnc(Nc4ccc(OCCCN5CCOCC5)cc4)n3)cnc2c1F` [Compound 403, 4-(7,8-difluoro-3-quinolylamino)-2-[p-(3-morpholinopropoxy)phenylamino]pyrimidine], the IC50 is 2000 to 10000 nM.
Regarding `FC(F)(F)Oc1cccc2cc(Nc3ccnc(Nc4ccc(OCCCN5CCOCC5)cc4)n3)cnc12` [Compound 404, 2-[p-(3-morpholinopropoxy)phenylamino]-4-(8-trifluoromethoxy-3-quinolylamino)pyrimidine], the IC50 lay within 2000 to 10000 nM.
As to `c1cc(Nc2cnc3cc(C4CC4)ccc3c2)nc(Nc2ccc(OCCCN3CCOCC3)cc2)n1` [Compound 405, 4-(7-cyclopropyl-3-quinolylamino)-2-[p-(3-morpholinopropoxy)phenylamino]pyrimidine], the half-maximal inhibitory concentration (IC50) lay in the range of 2000 to 10000 nM.
To `COc1ccc2cc(Nc3ccnc(Nc4ccc(OCCCN5CCOCC5)cc4)n3)cnc2c1` [Compound 406, 4-(7-methoxy-3-quinolylamino)-2-[p-(3-morpholinopropoxy)phenylamino]pyrimidine] belongs 2000 to 10000 nM; to `Cc1ccc2cc(Nc3ccnc(Nc4ccc(OCCCN5CCOCC5)cc4)n3)cnc2c1` [Compound 407, 4-(7-methyl-3-quinolylamino)-2-[p-(3-morpholinopropoxy)phenylamino]pyrimidine], 500 to 2000 nM; to `Oc1ccc2cc(Nc3ccnc(Nc4ccc(OCCCN5CCOCC5)cc4)n3)cnc2c1` [Compound 408, 3-{2-[p-(3-morpholinopropoxy)phenylamino]-4-pyrimidinylamino}-7-quinolinol], no more than 500 nM.
As for `Brc1ccc2cc(Nc3ccnc(Nc4ccc(OCCCN5CCOCC5)cc4)n3)cnc2c1` [Compound 409, 4-(7-bromo-3-quinolylamino)-2-[p-(3-morpholinopropoxy)phenylamino]pyrimidine], the IC50 was in the range of 2000 to 10000 nM.
On to `Clc1ccc2cc(Nc3ccnc(Nc4ccc(OCCCN5CCOCC5)cc4)n3)cnc2c1` [Compound 410, 4-(7-chloro-3-quinolylamino)-2-[p-(3-morpholinopropoxy)phenylamino]pyrimidine], for which the IC50 was in the range of 2000 to 10000 nM.
For `CS(=O)(=O)c1ccc2ncc(Nc3ccnc(Nc4ccc(OCCCN5CCOCC5)cc4)n3)cc2c1` [Compound 411, 4-(6-mesyl-3-quinolylamino)-2-[p-(3-morpholinopropoxy)phenylamino]pyrimidine] the value was 2000 to 10000 nM; for `COc1cc(Nc2nccc(Nc3cnc4c(Cl)cccc4c3)n2)ccc1OCCCN1CCOCC1` [Compound 413, 4-(8-chloro-3-quinolylamino)-2-[3-methoxy-4-(3-morpholinopropoxy)phenylamino]pyrimidine], no more than 500 nM.
Regarding `Oc1ccc2ncc(Nc3ccnc(Nc4ccc(OCCCN5CCOCC5)cc4)n3)cc2c1` [Compound 414, 3-{2-[p-(3-morpholinopropoxy)phenylamino]-4-pyrimidinylamino}-6-quinolinol], the IC50 is no more than 500 nM.
As to `FC(F)(F)c1cccc2cc(Nc3ccnc(Nc4ccc(OCCCN5CCOCC5)cc4)n3)cnc12` [Compound 415, 2-[p-(3-morpholinopropoxy)phenylamino]-4-[8-(trifluoromethyl)-3-quinolylamino]pyrimidine], the IC50 was 2000 to 10000 nM.
`Clc1cccc2cc(Nc3ccnc(Nc4ccc(OCCCN5CCOCC5)cc4)n3)cnc12` [Compound 416, 4-(8-chloro-3-quinolylamino)-2-[p-(3-morpholinopropoxy)phenylamino]pyrimidine]: the IC50 is no more than 500 nM.
Consider `COc1cccc2cc(Nc3ccnc(Nc4ccc(OCCCN5CCOCC5)cc4)n3)cnc12` [Compound 417, 4-(8-methoxy-3-quinolylamino)-2-[p-(3-morpholinopropoxy)phenylamino]pyrimidine], for which the IC50 is 500 to 2000 nM.

Broadly, the IC50 is the concentration needed to halve the response being measured.
